Experiment: Stability of iodine-containing X-ray contrast medium against radiation (iodine-starch reaction)
Type: physicochemical
Details: about 40 mg in 40 ml 0.1% starch solution
Method: Approximately 40 mg 2,3,5-triiodobenzoic acid (TIB) or another X-ray contrast medium that can be obtained commercially (diatrizoic acid or iotalamic acid etc.) is dissolved in 40 ml of a 0.1% starch solution while gently heating. 20 ml is in each case distributed to two Petri dishes (diameter 11.5 cm). Dish 1 is placed in full sunlight for 1 hour. Dish 2 is irradiated at a distance of 11 cm with a UV hand-held lamp (254 nm, 14 μW/cm^2).
This is even more significant because the energy of the UV irradiation (like the intensity of the irradiation source used) is approximately 100-fold lower than that of the X-ray irradiation of a computer tomograph.

## O=C(O)c1cc(I)cc(I)c1I [2,3,5-triiodobenzoic acid]
Dish 1, full sunlight for 1 hour
  colour of the solution (iodine-starch reaction) after exposure to daylight: still colourless
Dish 2, UV hand-held lamp 254 nm, 14 μW/cm^2, distance 11 cm
  colour of the solution (iodine-starch reaction) after UV irradiation: typical, intensive blue staining of the iodine-starch reaction

— patent US20090047218A1, “Method for producing albumin conjugates comprising an X-ray contrast medium as the active substance” (Albupharm Heidelberg GmbH & Co. KG, priority 2005, published 2009)
